Experimental data published in patent publication EP2065386A1, “CGRP antagonists” (Boehringer Ingelheim Pharma GmbH & Co. KG, priority 2007, dated 2009).

The compounds below were run against T1, humanen CGRP-Rezeptor (Homo sapiens, UniProt O60894+Q16602) (assay: Binding studies with SK-N-MC cell membranes, displacement of 125I-Iodotyrosyl-CGRP). Settings: SK-N-MC membrane homogenate, 50 pM 125I-Iodotyrosyl-CGRP, 180 min, room temperature.
T1 construct: endogenous in cells; host or cells: SK-N-MC cells (membrane homogenate)
T1 sequence (Q16602 23-461): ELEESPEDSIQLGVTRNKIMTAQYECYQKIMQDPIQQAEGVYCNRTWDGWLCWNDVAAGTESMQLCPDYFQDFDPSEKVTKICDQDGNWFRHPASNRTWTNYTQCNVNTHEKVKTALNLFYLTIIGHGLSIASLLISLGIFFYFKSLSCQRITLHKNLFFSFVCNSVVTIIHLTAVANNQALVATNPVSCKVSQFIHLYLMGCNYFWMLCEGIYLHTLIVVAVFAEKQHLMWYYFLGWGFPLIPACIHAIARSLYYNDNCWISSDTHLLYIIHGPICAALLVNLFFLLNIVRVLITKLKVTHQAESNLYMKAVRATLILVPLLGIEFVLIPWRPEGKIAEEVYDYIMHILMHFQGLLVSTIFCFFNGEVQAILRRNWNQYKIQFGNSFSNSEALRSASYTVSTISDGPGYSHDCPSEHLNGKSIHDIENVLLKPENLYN
T1 sequence (O60894 27-148): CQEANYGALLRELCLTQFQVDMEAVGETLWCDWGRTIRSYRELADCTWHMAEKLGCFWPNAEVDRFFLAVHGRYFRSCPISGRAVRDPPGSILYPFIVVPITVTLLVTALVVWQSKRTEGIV
Description: Zum Nachweis der Affinität der voranstehend genannten Verbindungen zu humanen CGRP-Rezeptoren und ihrer antagonistischen Eigenschaften wurden die folgenden Versuche durchgeführt: • A. Bindungsstudien mit (den humanen CGRP-Rezeptor exprimierenden) SK-N-MC-Zellen SK-N-MC-Zellen werden in "Dulbecco's modified Eagle Medium" kultiviert. Das Medium konfluenter Kulturen wird entfernt. Die Zellen werden zweimal mit PBS-Puffer (Gibco 041-04190 M) gewaschen, durch Zugabe von PBS-Puffer, versetzt mit 0.02% EDTA, abgelöst und durch Zentrifugation isoliert. Nach Resuspension in 20 ml "Balanced Salts Solution" [BSS (in mM): NaCl 120, KCl 5.4, NaHCO3 16.2, MgSO4 0.8, NaHPO4 1.0, CaCl2 1.8, D-Glucose 5.5, HEPES 30, pH 7.40] werden die Zellen zweimal bei 100 x g zentrifugiert und in BSS resuspendiert. Nach Bestimmung der Zellzahl werden die Zellen mit Hilfe eines Ultra-Turrax homogenisiert und für 10 Minuten bei 3000 x g zentrifugiert. Der Überstand wird verworfen und das Pellet in Tris-Puffer (10 mM Tris, 50 mM NaCl, 5 mM MgCl2, 1 mM EDTA, pH 7.40), angereichert mit 1% Rinderserum-Albumin und 0.1% Bacitracin, rezentrifugiert und resuspendiert (1 ml / 1000000 Zellen). Das Homogenat wird bei -80°C eingefroren. Die Membranpräparationen sind bei diesen Bedingungen für mehr als 6 Wochen stabil. Nach Auftauen wird das Homogenat 1:10 mit Assay-Puffer (50 mM Tris, 150 mM NaCl, 5 mM MgCl2, 1 mM EDTA, pH 7.40) verdünnt und 30 Sekunden lang mit einem Ultra-Turrax homogenisiert. 230 µl des Homogenats werden für 180 Minuten bei Raumtemperatur mit 50 pM ^125I-Iodotyrosyl-Calcitonin-Gene-Related Peptide (Amersham) und ansteigenden Konzentrationen der Testsubstanzen in einem Gesamtvolumen von 250 µl inkubiert. Die Inkubation wird durch rasche Filtration durch mit Polyethylenimin (0.1%) behandelte GF/B-Glasfaserfilter mittels eines Zellharvesters beendet. Die an Protein gebundene Radioaktivität wird mit Hilfe eines Gammacounters bestimmt. Als nichtspezifische Bindung wird die gebundene Radioaktivität nach Gegenwart von 1 µM humanem CGRP-alpha während der Inkubation definiert. […]
Cn1cc(C(=O)c2cc(Nc3ccc4c(c3)CC3(C4)C(=O)Nc4ncccc43)ncn2)c2ccccc21 (stereo not drawn) [(2), 5-(6-(1-Methyl-1H-indol-3-carbonyl)pyrimidin-4-ylamino)-1,3-dihydrospiro[inden-2,3'-pyrrolo[2,3-b]pyridin]-2'(1'H)-on] was tested, and the Ki was 89 nM.
Cn1cc(C(=O)c2cc(N3CCC4(CC3)OC(=O)Nc3ccccc34)ncn2)c2ccccc21 [(3), 1'-(6-(1-Methyl-1H-indol-3-carbonyl)pyrimidin-4-yl)spiro[benzo[d][1,3]oxazin-4,4'-piperidin]-2(1H)-on] was tested, and the Ki was 204 nM.
For Cn1cc(C(=O)c2cc(N3CCC4(CC3)NC(=O)Nc3ccccc34)ncn2)c2ccccc21 [(1), 1-(6-(1-Methyl-1H-indol-3-carbonyl)pyrimidin-4-yl)-1'H-spiro[piperidin-4,4'-chinazolin]-2'(3'H)-on], the Ki was 81 nM.
